# In patent US6528481B1, “NG2/HM proteoglycan-binding peptides that home to angiogenic vasculature and related methods” (The Burnam Institute, priority 1999, dated 2003):
# Where no end group is shown, it is not given here.
# Legend:
# NG2Δ3 [1] = assay: Solid-phase assay: binding of soluble NG2Δ3 to immobilized GST-peptide fusion proteins; set-up: species or system rat; conditions: soluble fusion protein, increasing concentrations (50 mg in FIG. 4A)
# Experimental: Solid-phase assays were performed as described previously (Burg et al., supra, 1996). Briefly, fusion proteins (2 μg/well) were coated onto microtiter wells overnight at 4° C. Wells were blocked with 2% BSA in PBS and incubated with soluble NG2Δ3 (1 μg/well) for 2 hr at room temperature. After washing, wells were then incubated with an anti-NG2 polyclonal antibody followed by washing and incubation with an ^125I-labeled goat anti-rabbit IgG. After final washing, bound radioactivity was determined using a gamma counter. For competition studies, soluble NG2Δ3 was preincubated 15 min with increasing concentrations of soluble GST-fusion proteins prior to incubation on wells coated with GST-fusion protein.
# The ability of soluble NG2 to bind to GST-TAASGVRSMH and GST-LTLRWVGLMS was tested by using a solid phase assay. Purified NG2Δ3 was incubated in wells coated with GST-TAASGVRSMH or GST-LTLRWVGLMS in the absence of inhibitor, or after preincubation with 50 mg of soluble GST-TAASGVRSMH, GST-LTLRWVGLMS or GST alone. Binding of NG2Δ3 was determined, and the results shown in FIG. 4 are representative of three independent experiments. Error bars show S.E.M. of the mean from triplicate wells. The differences indicated by “*” are considered significant by student t test (p<0.05). The differences indicated by “**” are considered highly significant by student t test (p<0.01).
# NG2Δ3 [2] = assay: Inhibition of phage binding to NG2Δ3-coated wells by GST-peptide fusion proteins; set-up: species or system rat; conditions: increasing concentrations of GST protein; for effect on binding of TAASGVRSMH-phage to NG2 coated wells: FIG. 3A; for effect on binding of LTLRWVGLMS-phage to NG2: FIG. 3B
# Experimental: Binding of individual phage clones or an aliquot of unselected phage library control to NG2 or BSA-coated control wells was performed as described above using 1×10^9 input phage/well. For competition studies, phage incubations were performed in the presence of increasing concentrations of soluble NG2 or GST-fusion proteins.
# GST-fusion proteins containing the decapeptide inserts were constructed as previously described (Rajotte et al., J. Clin. Invest. 102:430-437 (1998)). Briefly, peptide inserts were amplified by polymerase chain reaction (PCR) from the phage using specific M13 primers. PCR products were then digested with BamHI and EcoRI and inserted into the pGEX2TK vector. Fusion proteins were produced and purified according to the manufacturer's instructions (Pharmacia Biotech Inc.; Piscataway N.J.).
# GST-peptide fusion proteins containing one of the two NG2-binding motifs, TAASGVRSMH (SEQ ID NO:1) or LTLRWVGLMS (SEQ ID NO:2), were tested for their ability to inhibit binding of phage to NG2Δ3-coated wells. Purified TAASGVRSMH-phage and LTLRWVGLMS-phage were incubated in NG2Δ3-coated wells in the presence of increasing concentrations of GST-TAASGVRSMH fusion protein, GST-LTLRWVGLMS fusion protein, or GST alone, and phage binding was quantified. Results shown in FIG. 3 are representative of three independent experiments and error bars show S.E.M. of the mean from triplicate platings of duplicate wells. The differences indicated by “*” are considered highly significant by student t test (p<0.01).
# [3] = test system: recombinant fragment of rat NG2 (NG2ECΔ3); assay: Biopanning of linear decapeptide phage library on NG2-coated wells; format: binding; conditions: for selection/enrichment of NG2-binding sequences in in vitro panning: five successive rounds on NG2-coated wells
# Text: To identify peptide motifs capable of interacting with NG2, recombinant NG2 fragments consisting of the N-terminal two-thirds of the extracellular domain of NG2 proteoglycan were generated. Briefly, a recombinant fragment of rat NG2 consisting of the N-terminal two-thirds of the extracellular domain (NG2ECΔ3) was purified from transfected human embryonic kidney 293 cells as described (Tillet et al., J. Biol. Chem. 272:10769-10776 (1997)). Recombinant NG2 diluted in phosphate buffered saline (PBS) (2 μg NG2/well) was coated onto microtiter wells overnight at 4° C. Wells were blocked with 2% bovine serum albumin (BSA) in PBS for 1 hr at room temperature. For biopanning, phage (1×10^11 TU) from a linear decapeptide phage library diluted in 2% BSA were added to NG2-coated wells and incubated for 2 hr at room temperature. Wells were washed with PBS containing 0.1% TWEEN-20 to remove unbound phage. Bound phage were recovered by direct infection of wells with exponentially growing K91kan bacteria, followed by phage amplification overnight at 37° C. Amplified phage were then subjected to four subsequent rounds of selection on NG2-coated wells. Phage binding was quantified by counting colonies from aliquots of phage-infected bacteria removed from NG2-coated wells. Phage were sequenced from randomly selected clones as described previously (Rajotte et al., J. Clin. Invest. […]:430-437 (1998)).
# To identify peptide motifs capable of interacting with NG2, the recombinant NG2 fragments were used to select phage clones from a random decapeptide phage display library. Bound phage were isolated and used for successive rounds of panning on the NG2 proteoglycan. Five successive rounds of biopanning were performed. Random clones were sequenced from rounds II to V. Sequence analysis from the final three rounds of panning are shown in Table 1. In parentheses is the number of clones displaying the same sequence. The sequences shown in column III of Table 1 are referenced as SEQ ID NOS:1-15.
# NG2 = NG2 (Rattus norvegicus, UniProt Q00657); assay: Binding of peptide to NG2 (no method given)
# Chain of NG2 (Q00657 30-2326): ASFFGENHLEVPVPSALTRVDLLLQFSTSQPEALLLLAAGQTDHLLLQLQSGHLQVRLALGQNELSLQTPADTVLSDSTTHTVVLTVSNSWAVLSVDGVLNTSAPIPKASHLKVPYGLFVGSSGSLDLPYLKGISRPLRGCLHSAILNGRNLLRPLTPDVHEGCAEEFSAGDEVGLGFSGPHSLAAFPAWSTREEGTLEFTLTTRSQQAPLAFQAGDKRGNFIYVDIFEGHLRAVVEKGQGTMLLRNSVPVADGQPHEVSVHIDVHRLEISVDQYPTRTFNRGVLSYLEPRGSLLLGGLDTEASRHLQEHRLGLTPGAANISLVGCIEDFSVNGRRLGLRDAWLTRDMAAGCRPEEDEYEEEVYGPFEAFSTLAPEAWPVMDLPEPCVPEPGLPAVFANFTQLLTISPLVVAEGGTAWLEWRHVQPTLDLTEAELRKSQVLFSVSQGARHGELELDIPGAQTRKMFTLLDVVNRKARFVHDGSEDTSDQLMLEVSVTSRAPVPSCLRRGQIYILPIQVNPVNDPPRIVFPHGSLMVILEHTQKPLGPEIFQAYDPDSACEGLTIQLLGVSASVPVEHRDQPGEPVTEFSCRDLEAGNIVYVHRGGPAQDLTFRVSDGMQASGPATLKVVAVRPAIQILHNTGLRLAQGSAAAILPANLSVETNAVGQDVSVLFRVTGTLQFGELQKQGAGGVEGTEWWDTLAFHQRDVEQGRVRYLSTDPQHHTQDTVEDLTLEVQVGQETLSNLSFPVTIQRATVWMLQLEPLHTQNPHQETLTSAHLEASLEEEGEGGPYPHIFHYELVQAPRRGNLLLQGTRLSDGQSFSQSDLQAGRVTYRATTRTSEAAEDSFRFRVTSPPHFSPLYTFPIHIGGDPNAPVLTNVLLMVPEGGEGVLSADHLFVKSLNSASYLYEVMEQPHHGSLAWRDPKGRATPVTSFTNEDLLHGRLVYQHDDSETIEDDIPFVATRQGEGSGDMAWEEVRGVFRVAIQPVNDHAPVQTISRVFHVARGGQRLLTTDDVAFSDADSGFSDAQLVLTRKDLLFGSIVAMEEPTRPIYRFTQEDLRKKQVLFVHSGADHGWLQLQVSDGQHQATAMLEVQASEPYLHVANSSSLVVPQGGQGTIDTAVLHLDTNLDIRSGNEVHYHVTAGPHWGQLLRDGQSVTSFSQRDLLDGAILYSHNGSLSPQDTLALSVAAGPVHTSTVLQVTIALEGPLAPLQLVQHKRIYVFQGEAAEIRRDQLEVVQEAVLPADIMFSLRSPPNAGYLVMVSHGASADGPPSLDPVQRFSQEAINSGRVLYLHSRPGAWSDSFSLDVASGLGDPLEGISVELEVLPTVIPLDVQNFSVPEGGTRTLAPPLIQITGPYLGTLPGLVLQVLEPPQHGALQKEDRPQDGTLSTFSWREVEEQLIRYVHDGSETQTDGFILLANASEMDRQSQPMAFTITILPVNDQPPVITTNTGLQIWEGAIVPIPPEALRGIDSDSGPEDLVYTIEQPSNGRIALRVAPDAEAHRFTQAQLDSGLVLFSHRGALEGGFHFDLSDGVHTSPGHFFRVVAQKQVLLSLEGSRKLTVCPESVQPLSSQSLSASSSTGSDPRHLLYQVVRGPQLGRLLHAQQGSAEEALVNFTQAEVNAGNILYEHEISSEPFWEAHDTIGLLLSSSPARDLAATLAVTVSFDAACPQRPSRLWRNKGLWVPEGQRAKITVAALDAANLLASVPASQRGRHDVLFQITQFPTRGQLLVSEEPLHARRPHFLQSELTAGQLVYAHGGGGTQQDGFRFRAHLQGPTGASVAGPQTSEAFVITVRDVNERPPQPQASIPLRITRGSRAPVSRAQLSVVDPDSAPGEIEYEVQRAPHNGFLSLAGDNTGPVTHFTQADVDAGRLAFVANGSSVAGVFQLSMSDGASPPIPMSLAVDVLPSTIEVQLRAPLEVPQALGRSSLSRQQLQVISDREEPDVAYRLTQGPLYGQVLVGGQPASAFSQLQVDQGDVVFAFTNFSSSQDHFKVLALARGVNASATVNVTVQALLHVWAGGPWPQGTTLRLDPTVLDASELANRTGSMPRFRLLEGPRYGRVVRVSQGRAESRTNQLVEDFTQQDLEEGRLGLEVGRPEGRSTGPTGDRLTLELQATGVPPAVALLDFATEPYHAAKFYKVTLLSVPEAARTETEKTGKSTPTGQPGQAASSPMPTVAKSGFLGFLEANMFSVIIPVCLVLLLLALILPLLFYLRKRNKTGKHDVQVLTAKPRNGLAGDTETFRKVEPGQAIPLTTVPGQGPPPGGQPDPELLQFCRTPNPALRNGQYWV
# Chain of recombinant fragment of rat NG2 (NG2ECΔ3) (Q00657 30-1450 limits assumed, stated change not applied): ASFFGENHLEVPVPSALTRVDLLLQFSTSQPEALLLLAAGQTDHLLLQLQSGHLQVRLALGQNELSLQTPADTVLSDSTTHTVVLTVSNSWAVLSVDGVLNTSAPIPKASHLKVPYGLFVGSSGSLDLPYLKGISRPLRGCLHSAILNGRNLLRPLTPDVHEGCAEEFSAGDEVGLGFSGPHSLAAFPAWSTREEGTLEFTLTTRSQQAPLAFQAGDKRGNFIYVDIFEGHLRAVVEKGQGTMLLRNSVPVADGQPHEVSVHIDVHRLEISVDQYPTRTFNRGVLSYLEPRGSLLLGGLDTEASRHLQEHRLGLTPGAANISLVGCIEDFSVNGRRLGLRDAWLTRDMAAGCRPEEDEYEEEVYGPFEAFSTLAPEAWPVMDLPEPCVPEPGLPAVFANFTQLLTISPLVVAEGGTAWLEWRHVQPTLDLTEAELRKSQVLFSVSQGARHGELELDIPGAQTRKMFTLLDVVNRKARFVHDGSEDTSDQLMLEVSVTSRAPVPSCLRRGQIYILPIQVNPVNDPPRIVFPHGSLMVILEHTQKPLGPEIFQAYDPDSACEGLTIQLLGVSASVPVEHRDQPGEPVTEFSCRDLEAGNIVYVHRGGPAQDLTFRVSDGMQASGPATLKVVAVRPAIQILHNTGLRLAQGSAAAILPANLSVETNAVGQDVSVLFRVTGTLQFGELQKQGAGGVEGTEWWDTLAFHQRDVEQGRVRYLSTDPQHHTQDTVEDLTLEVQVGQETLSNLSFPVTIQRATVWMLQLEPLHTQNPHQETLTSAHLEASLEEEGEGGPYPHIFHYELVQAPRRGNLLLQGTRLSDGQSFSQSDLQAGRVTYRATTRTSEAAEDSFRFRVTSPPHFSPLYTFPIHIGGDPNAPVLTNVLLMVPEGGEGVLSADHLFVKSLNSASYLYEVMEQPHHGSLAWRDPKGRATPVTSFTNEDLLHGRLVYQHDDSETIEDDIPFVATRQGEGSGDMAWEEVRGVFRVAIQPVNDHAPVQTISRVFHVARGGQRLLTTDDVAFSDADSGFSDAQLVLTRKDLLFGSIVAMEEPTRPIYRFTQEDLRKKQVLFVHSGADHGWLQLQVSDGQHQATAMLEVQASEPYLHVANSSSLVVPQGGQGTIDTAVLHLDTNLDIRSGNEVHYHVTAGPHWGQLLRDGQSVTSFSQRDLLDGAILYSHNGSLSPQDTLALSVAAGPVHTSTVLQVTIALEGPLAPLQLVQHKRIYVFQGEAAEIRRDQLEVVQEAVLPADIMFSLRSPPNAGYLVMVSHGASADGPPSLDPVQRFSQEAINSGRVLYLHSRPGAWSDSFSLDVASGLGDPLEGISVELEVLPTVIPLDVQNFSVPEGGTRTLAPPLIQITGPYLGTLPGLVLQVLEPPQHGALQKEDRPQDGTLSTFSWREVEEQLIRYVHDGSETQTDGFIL
# Chain of NG2Δ3 (Q00657 30-1450 limits assumed, stated change not applied): as above
substance,measurement,setting,value
GST-LTLRWVGLMS: GST-fusion protein containing the decapeptide insert LTLRWVGLMS ({GST}-LTLRWVGLMS),effect of preincubation on binding of NG2 to wells coated with GST-TAASGVRSMH,NG2Δ3 [1],inhibited binding
same,effect on binding of TAASGVRSMH-phage to NG2 coated wells,NG2Δ3 [2],inhibited
same,effect on binding of LTLRWVGLMS-phage to NG2,NG2Δ3 [2],inhibited the binding
control GST protein: control GST protein containing no peptide insert [reference compound],effect on binding of TAASGVRSMH-phage to NG2 coated wells,NG2Δ3 [2],little effect on binding
same,effect on binding of LTLRWVGLMS-phage to NG2,NG2Δ3 [2],no significant effect on the binding
GST-TAASGVRSMH: GST-fusion protein containing the decapeptide insert TAASGVRSMH ({GST}-TAASGVRSMH),effect of preincubation on binding of NG2 to wells coated with GST-TAASGVRSMH,NG2Δ3 [1],dose-dependent decrease in binding
same,effect on binding of TAASGVRSMH-phage to NG2 coated wells,NG2Δ3 [2],dose-dependent decrease in binding
same,effect on binding of LTLRWVGLMS-phage to NG2,NG2Δ3 [2],inhibited the binding
GGGTRAGMKY,number of clones displaying the same sequence,[3]; panning round III,GGGTRAGMKY (SEQ ID NO: 3) (2)
LTLRWVGLMS,selection/enrichment of NG2-binding sequences in in vitro panning,[3],specifically enriched in later rounds of in vitro panning
same,number of clones displaying the same sequence,[3]; panning round IV,LTLRWVGLMS (10)
same,number of clones displaying the same sequence,[3]; panning round V,LTLRWVGLMS (SEQ ID NO: 2) (7)
CLSGSLSC,binding to NG2,NG2,found to bind to NG2
TAASGVRSMH,selection/enrichment of NG2-binding sequences in in vitro panning,[3],specifically enriched in later rounds of in vitro panning
same,number of clones displaying the same sequence,[3]; panning round IV,TAASGVRSMH (16)
same,number of clones displaying the same sequence,[3]; panning round V,TAASGVRSMH (SEQ ID NO: 1) (8)
